The data set can be described thus: Phase I clinical trial: safety and tolerability of C21 in healthy subjects. It is filed as in vivo, human. The note with it: healthy male and female subjects, gradual escalation of dose. The procedure:
A Phase I clinical trial was conducted to evaluate the safety, tolerability, and pharmacokinetics of C21 in healthy male and female subjects. The study design allowed a gradual escalation of dose with intensive clinical data and PK monitoring to ensure the safety and wellbeing of subjects.
The study was designed and conducted in accordance with the CRO's standard operating procedures (SOPs), which comply with the ethical principles laid down in the International Council for Harmonisation (ICH) Good Clinical Practice (GCP) guidance as required by the major regulatory authorities, and in accordance with the Declaration of Helsinki as amended by the 48th General Assembly in October 1996.

As for `CCCCOC(=O)NS(=O)(=O)c1sc(CC(C)C)cc1-c1ccc(Cn2ccnc2)cc1` [C21, N-butyloxycarbonyl-3-(4-imidazol-1-ylmethylphenyl)-5-iso-butylthiophene-2-sulfonamide], the safety and tolerability result was “safe and generally well tolerated”; the serious adverse events entry is “No serious adverse events”.

(Values after US12121614B2, “Delayed release composition for peroral administration” (VICORE PHARMA AB, priority 2020, dated 2024).)
